Like-named read-outs stand apart in the source and are kept apart here.
Assays:
[1] = tested on: WI-38 human lung fibroblast cells; test: MTT cytotoxicity assay on normal cells; assay type: cell-based; conditions: Homo sapiens, WI-38; normal lung fibroblasts, MTT, 24 h, n = 3; read-out: IC50 (µM) ± SEM WI-38
Experimental: All chemicals used in this study were analytical or cell-culture grade.
Cytotoxicity was measured using the MTT assay. […] The medium was aspirated and 150 μL DMSO was added to solubilise MTT formazan crystals. The plates were then shaken, and the optical density was determined at 570 nm using an ELISA plate reader (Model 550, Bio-Rad, Hercules, CA). At least three independent experiments were performed.

KG-1a leukaemia cells = test: Anti-proliferative MTT assay; assay type: cell-based; conditions: Homo sapiens, 24 h, read-out: % Growth inhibition ± SEM KG-1a
Experimental: (§1) To evaluate the anti-proliferative activity of the synthesised thiazolyl-pyrazoline derivatives (7a–7d, 10a–10d, and 13a–13f), a preliminary in vitro one dose (10 µM) anticancer assay was performed. Nine cell lines derived from five tumour subpanels were examined; leukaemia (K562 and KG-1a), breast (MCF-7, BT-549 and HCC70), lung (A549 and H441), colon (HCT116) and liver (HepG2) cancer cell lines. The compounds were added at a single concentration (10 µM) and the cultures were incubated for 24 h, then the per cent growth inhibition (%GI) was calculated.
(§2) Human leukaemia (K562 and KG-1a), breast (MCF-7, BT-549 and HCC70), lung (A549, H441, NCI-H1650 and NCI-H1975), colon (HCT116), liver (HepG2) cancer cell lines and WI-38 human lung fibroblast cell line were obtained from the American Type Culture Collection (ATCC; Manassas, VA) and were cultured in their suitable media containing 10% foetal bovine serum (FBS; Sigma-Aldrich) in a humidified atmosphere with 5% CO2 at 37 °C. Gefitinib and vandetanib were purchased from Sigma-Aldrich. All chemicals used in this study were analytical or cell-culture grade.
(§3) Cytotoxicity was measured using the MTT assay. Human leukaemia (K562 and KG-1a), breast (MCF-7, BT-549 and HCC70), lung (A549, H441, NCI-H1650 and NCI-H1975), colon (HCT116), liver (HepG2) cancer cell lines and WI-38 human lung fibroblast cell line were plated at a density of 1 × 10^4 cells per well in 96-well plates overnight and then treated with the compounds. After 24 h treatment, 20 μL of MTT solution (2 mg/mL in phosphate-buffered saline [PBS]) was added to each well and the cells were cultured for another 4 h at 37 °C. The medium was aspirated and 150 μL DMSO was added to solubilise MTT formazan crystals. The plates were then shaken, and the optical density was determined at 570 nm using an ELISA plate reader (Model 550, Bio-Rad, Hercules, CA). At least three independent experiments were performed. The IC50 values were calculated using GraphPad Prism 5 (Version 5.01, GraphPad Software, San Diego, CA).

[2] = tested on: MCF-7 breast cancer cells; test: Anti-proliferative MTT assay; assay type: cell-based; conditions: Homo sapiens, MCF7, 24 h, read-out: % Growth inhibition ± SEM MCF-7
Experimental: as §1, §2, §3

[3] = tested on: HCT116 colon cancer cells; test: Anti-proliferative MTT assay; assay type: cell-based; conditions: Homo sapiens, HCT-116, 24 h, read-out: % Growth inhibition ± SEM HCT116
Experimental: as §1, §2, §3

[4] = tested on: HCC70 breast cancer cells; test: Anti-proliferative MTT assay; assay type: cell-based; conditions: Homo sapiens, 24 h, read-out: % Growth inhibition ± SEM HCC70
Experimental: as §1, §2, §3

HepG2 liver cancer cells = test: Anti-proliferative MTT assay; assay type: cell-based; conditions: Homo sapiens, 24 h, read-out: % Growth inhibition ± SEM HepG2
Experimental: as §1, §2, §3

K562 leukaemia cells = test: Anti-proliferative MTT assay; assay type: cell-based; conditions: Homo sapiens, 24 h, read-out: % Growth inhibition ± SEM K562
Experimental: as §1, §2, §3

[5] = tested on: BT-549 breast cancer cells; test: Anti-proliferative MTT assay; assay type: cell-based; conditions: Homo sapiens, 24 h, read-out: % Growth inhibition ± SEM BT-549
Experimental: as §1, §2, §3

EGFR = EGFR (Homo sapiens, UniProt P00533); test: EGFR kinase assay (PGT-coated 96-well plates); assay type: biochemical; conditions: read-out: IC50 (nM) ± SEM EGFR
EGFR, sequence (P00533 25-1210): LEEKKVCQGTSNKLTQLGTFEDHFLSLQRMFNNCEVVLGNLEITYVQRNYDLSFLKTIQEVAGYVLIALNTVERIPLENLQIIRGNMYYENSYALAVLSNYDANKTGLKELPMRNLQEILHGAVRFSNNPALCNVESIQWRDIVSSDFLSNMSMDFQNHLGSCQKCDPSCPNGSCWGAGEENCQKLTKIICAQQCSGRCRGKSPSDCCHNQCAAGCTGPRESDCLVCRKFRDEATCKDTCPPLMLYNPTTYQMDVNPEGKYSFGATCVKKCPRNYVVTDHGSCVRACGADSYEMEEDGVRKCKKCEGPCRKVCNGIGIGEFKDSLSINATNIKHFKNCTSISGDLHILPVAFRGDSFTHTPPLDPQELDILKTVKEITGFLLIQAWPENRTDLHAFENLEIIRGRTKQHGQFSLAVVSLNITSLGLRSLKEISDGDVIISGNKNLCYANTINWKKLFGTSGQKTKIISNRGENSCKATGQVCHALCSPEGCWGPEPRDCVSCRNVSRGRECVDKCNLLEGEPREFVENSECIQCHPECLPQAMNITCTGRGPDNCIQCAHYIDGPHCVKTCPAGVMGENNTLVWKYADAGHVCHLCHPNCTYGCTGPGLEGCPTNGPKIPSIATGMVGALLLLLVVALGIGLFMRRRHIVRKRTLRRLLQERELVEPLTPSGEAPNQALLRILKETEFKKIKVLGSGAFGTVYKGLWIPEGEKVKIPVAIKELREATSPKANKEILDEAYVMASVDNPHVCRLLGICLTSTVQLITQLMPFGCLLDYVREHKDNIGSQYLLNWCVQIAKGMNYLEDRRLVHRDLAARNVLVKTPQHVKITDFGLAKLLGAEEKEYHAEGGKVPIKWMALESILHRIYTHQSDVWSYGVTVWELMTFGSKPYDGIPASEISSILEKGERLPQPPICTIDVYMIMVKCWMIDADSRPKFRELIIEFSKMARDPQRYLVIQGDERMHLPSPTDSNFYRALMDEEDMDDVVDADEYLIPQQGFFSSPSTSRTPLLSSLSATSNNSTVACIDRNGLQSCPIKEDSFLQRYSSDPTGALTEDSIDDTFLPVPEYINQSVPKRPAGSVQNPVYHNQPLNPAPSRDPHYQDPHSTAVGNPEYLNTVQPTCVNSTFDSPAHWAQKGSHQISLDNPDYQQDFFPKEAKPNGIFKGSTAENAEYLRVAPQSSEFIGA
Experimental: (§4) The EGFR kinase assay was carried out in 96-well plates coated with PGT (poly l-glutamic acid l-tyrosine, 4:1, Sigma Aldrich, St. Louis, MO) as previously described. IC50 values were calculated using GraphPad Prism 5. Each experiment was carried out at least three times. The VEGFR-2 kinase assay was carried out in 96-well streptavidin coated plate using recombinant human VEGFR-2/KDR ELISA kit according to manufacturer’s instructions.

A549 lung cancer cells = test: Anti-proliferative MTT assay; conditions: Homo sapiens, A549, 24 h; for inhibition at 10 µM: read-out: % Growth inhibition ± SEM A549; for IC50: read-out: IC50 (µM) ± SEM A549
H441 lung cancer cells = test: Anti-proliferative MTT assay; conditions: for inhibition at 10 µM: read-out: % Growth inhibition ± SEM H441
[6] = target: T1, recombinant human VEGFR-2/KDR (Homo sapiens, UniProt P35968); test: VEGFR-2 kinase assay (VEGFR-2/KDR ELISA kit); assay type: biochemical; conditions: read-out: IC50 (nM) ± SEM VEGFR-2
T1 construct: purchased
T1 sequence (P35968 20-1356): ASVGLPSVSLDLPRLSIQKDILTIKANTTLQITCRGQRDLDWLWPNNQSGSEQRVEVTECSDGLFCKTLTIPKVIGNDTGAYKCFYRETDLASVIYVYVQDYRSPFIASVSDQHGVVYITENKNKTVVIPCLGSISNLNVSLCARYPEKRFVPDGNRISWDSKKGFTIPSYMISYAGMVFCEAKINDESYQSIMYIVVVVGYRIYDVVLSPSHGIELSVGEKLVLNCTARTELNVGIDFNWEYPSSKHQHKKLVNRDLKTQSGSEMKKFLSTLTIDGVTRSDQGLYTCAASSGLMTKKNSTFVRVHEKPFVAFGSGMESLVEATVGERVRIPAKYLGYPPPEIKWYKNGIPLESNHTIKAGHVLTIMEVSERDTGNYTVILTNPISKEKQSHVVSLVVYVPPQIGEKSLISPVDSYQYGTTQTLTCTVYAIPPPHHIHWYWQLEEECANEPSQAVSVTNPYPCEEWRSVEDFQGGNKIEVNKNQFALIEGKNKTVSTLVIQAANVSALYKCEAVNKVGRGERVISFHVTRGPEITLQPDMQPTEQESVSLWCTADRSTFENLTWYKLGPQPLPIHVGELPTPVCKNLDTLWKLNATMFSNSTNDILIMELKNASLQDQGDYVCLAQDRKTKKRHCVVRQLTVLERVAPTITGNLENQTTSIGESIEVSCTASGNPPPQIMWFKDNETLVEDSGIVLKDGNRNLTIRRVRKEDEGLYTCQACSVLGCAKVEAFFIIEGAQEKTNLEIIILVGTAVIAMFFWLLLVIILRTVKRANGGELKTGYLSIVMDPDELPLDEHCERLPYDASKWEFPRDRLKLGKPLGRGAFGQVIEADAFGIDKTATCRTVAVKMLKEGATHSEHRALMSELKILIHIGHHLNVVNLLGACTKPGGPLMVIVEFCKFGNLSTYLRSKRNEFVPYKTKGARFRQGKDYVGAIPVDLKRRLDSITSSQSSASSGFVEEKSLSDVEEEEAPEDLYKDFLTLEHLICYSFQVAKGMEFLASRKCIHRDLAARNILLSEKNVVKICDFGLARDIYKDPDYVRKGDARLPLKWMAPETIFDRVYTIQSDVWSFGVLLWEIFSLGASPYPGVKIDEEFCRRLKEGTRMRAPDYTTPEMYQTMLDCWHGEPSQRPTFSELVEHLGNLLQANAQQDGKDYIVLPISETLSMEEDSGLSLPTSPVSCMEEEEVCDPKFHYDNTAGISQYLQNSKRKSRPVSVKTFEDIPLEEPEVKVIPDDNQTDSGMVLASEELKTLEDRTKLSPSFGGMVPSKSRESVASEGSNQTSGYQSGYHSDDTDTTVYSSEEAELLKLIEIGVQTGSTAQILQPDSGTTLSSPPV
Experimental: as §4

[7] = Homo sapiens, NCI-H441, 24 h, read-out: IC50 (µM) ± SEM H441, MTT, 24 h, n = 3

SMILES | IC50 [1] | melting point | inhibition at 10 µM (KG-1a leukaemia cells) | inhibition at 10 µM [2] | inhibition at 10 µM [3] | inhibition at 10 µM [4] | inhibition at 10 µM (HepG2 liver cancer cells) | inhibition at 10 µM (K562 leukaemia cells) | inhibition at 10 µM [5] | IC50 (EGFR) | inhibition at 10 µM (A549 lung cancer cells) | IC50 (A549 lung cancer cells) | inhibition at 10 µM (H441 lung cancer cells; Homo sapiens, NCI-H441, 24 h) | IC50 (H441 lung cancer cells; [7]) | IC50 [6] | IC50 (H441 lung cancer cells; read-out: IC50 (µM) ± SEM H441, MTT, 24 h, n = 3)
COc1ccc(C2CC(c3ccc(Cl)cc3Cl)=NN2c2nc(-c3ccccc3)cs2)cc1 (stereo not shown) [Compound 7a, 2-(3-(2,4-Dichlorophenyl)-5-(4-methoxyphenyl)-4,5-dihydro-1H-pyrazol-1-yl)-4-phenylthiazole] | 88.2 ± 4.2 µM | 72 to 75 °C | 18.4 ± 1.3% | 0.07% | 0.5 ± 0.1% | 27.3 ± 1% | 0.5% | 14.2 ± 2.1% | 26.4 ± 3.6% | 145 ± 2 nM | 34.9 ± 4.3% | 22.5 ± 1.2 µM | 36.1 ± 2.1% | 38.4 ± 2.3 µM | 125 ± 1.4 nM | 
COc1ccc(C2CC(c3ccc(Cl)cc3Cl)=NN2c2nc(-c3ccc(Cl)cc3)cs2)cc1 (stereo not shown) [Compound 7b, 4-(4-Chlorophenyl)-2-(3-(2,4-dichlorophenyl)-5-(4-methoxyphenyl)-4,5-dihydro-1H-pyrazol-1-yl)thiazole] | 60.6 ± 3.1 µM | 140 to 141 °C | 21.7 ± 4.6% | 25.9 ± 1.2% | 18.8 ± 1.9% | 19.6 ± 0.3% | 34.4 ± 1.4% | 21.5 ± 3% | 5.2 ± 1% | 114.2 ± 0.4 nM | 45.2 ± 2.9% | 12 ± 0.4 µM | 35.2 ± 1.2% | 26.5 ± 1.1 µM | 195 ± 4.6 nM | 
COc1ccc(C2CC(c3ccc(Cl)cc3Cl)=NN2c2nc(-c3ccccc3)cs2)cc1OC (stereo not shown) [Compound 7c, 2-(3-(2,4-Dichlorophenyl)-5-(3,4-dimethoxyphenyl)-4,5-dihydro-1H-pyrazol-1-yl)-4-phenylthiazole] | > 100 µM | 120 to 122 °C | 4.3 ± 0.7% | 9.2 ± 0.9% | 4.9 ± 0.8% | 7.3 ± 1.2% | 17.1 ± 2.7% | 5.2 ± 0.5% | 3.1 ± 0.6% | 511.2 ± 3.2 nM | 8.9 ± 1.1% | > 100 µM | 16.2 ± 0.3% | > 100 µM | 915.2 ± 4.3 nM | 
COc1ccc(C2CC(c3ccc(Cl)cc3Cl)=NN2c2nc(-c3ccc(Cl)cc3)cs2)cc1OC (stereo not shown) [Compound 7d, 4-(4-Chlorophenyl)-2-(3-(2,4-dichlorophenyl)-5-(3,4-dimethoxyphenyl)-4,5-dihydro-1H-pyrazol-1-yl)thiazole] | 40.1 ± 2.7 µM | 158 to 159 °C | 25.1 ± 2% | 2.2 ± 0.6% | 0.7% | 17.3 ± 0.6% | 5.1 ± 1% | 22 ± 1.6% | 18 ± 2.7% | 132.9 ± 1.2 nM | 31.2 ± 1.4% | 20.2 ± 2 µM | 34.8 ± 2.4% | 29.1 ± 3.5 µM | 186 ± 2.3 nM | 
COc1ccc(C2CC(c3ccc(Cl)cc3Cl)=NN2c2nc(C)c(C(C)=O)s2)cc1 (stereo not shown) [Compound 10a, 1-(2-(3-(2,4-Dichlorophenyl)-5-(4-methoxyphenyl)-4,5-dihydro-1H-pyrazol-1-yl)-4-methylthiazol-5-yl)ethan-1-one] | > 100 µM | 205 to 207 °C | 22.2 ± 1.6% | 13.6 ± 2.9% | 19 ± 2.6% | 24.3 ± 2.5% | 28 ± 4.3% | 12.2 ± 1.9% | 9.4 ± 1% | 274 ± 2.3 nM | 32.3 ± 2.2% | 49.1 ± 3.2 µM | 6.3 ± 0.7% | > 100 µM | 450 ± 8.3 nM | 
COc1ccc(C2CC(c3ccc(Cl)cc3Cl)=NN2c2nc(C)c(C(=O)Nc3ccccc3)s2)cc1 (stereo not shown) [Compound 10c, 2-(3-(2,4-Dichlorophenyl)-5-(4-methoxyphenyl)-4,5-dihydro-1H-pyrazol-1-yl)-4-methyl-N-phenylthiazole-5-carboxamide] | > 100 µM | 195 to 197 °C | 9.1 ± 1% | 2.5 ± 0.8% | 7.9 ± 1.1% | 18.3 ± 1.6% | 11.9 ± 1.1% | 11.2 ± 1% | 22.3 ± 0.8% | 130.7 ± 1.1 nM | 28.9 ± 2% | 23.5 ± 1.3 µM | 8.7 ± 0.1% | 45.2 ± 2.3 µM | 102 ± 4.3 nM | 
COc1ccc(C2CC(c3ccc(Cl)cc3Cl)=NN2c2nc(C)c(N=Nc3ccccc3)s2)cc1 (stereo not shown) [Compound 13a, 2-(3-(2,4-Dichlorophenyl)-5-(4-methoxyphenyl)-4,5-dihydro-1H-pyrazol-1-yl)-4-methyl-5-(phenyldiazenyl)thiazole] | > 100 µM | 168 to 170 °C | 4.1 ± 0.9% | 17.8 ± 1% | 19.5 ± 1.4% | 15.3 ± 1.4% | 15.8 ± 2.2% | 2.2 ± 0.2% | 10.3 ± 1.1% | 973 ± 2 nM | 11 ± 0.8% | > 100 µM | 22.2 ± 0.9% | > 100 µM | 1151 ± 4.3 nM | 94.4 ± 5.5 µM
COc1cc2c(Nc3ccc(Br)cc3F)ncnc2cc1OCC1CCN(C)CC1 [Vandetanib, reference compound] | 8.6 ± 0.4 µM |  |  |  |  |  |  |  |  |  |  | 3.4 ± 1 µM |  | 3.9 ± 0.8 µM |  | 
